Assay results reported in patent US20110039721A1, “METHOD FOR PREDICTION ABOUT CARCINOGENICITY OF SUBSTANCE IN RODENT” (Chemicals Evaluation and Research Institute, priority 2007, published 2011).

Assays:
[1] = system: mRNA expressed from the genes (A) to (D) in rat liver; experiment: Behavior of genes (mRNA expression level, oligo-DNA microarray) in rat liver after 28-day oral administration; assay type: in vivo
Outline: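 Liver mRNA measured by oligo-DNA microarray after 28 days of once-daily oral gavage in 5-week-old male F344 rats (n=4 per group), with vehicle controls given equal solvent volume. Significance threshold: 1.5-fold up or down versus control, with changes opposite in direction to other carcinogens counted as not significant.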

liver = details: in vivo; cited from earlier work
rodent = details: classification of the substance (C+/C−); cited from earlier work
[2] = classification of the substance (M+/M−); cited from earlier work
[3] = gene group (A), Unigene No. Rn.167075
[4] = gene group (C), Unigene No. Rn.120914

In the case of O=C1CCCCCN1 [TS074, Caprolactam], the “Behavior of gene caused by administration of chemical substance, Gene No. 4846” value ([1]; gene group (A), Unigene No. Rn.144554) is reported as “−”, the “Behavior of gene caused by administration of chemical substance, Gene No. 2026” value [1, 3] is reported as “−” and the “Behavior of gene caused by administration of chemical substance, Gene No. 4218” value [1, 3] is reported as “−”. The “Behavior of gene caused by administration of chemical substance, Gene No. 6182” value ([1]; gene group (A), Unigene No. Rn.5834) was “+”, the “Behavior of gene caused by administration of chemical substance, Gene No. 5600” value ([1]; gene group (A), Unigene No. Rn.9836) was “−” and the “Behavior of gene caused by administration of chemical substance, Gene No. 1494” value ([1]; gene group (B), Unigene No. Rn.1430) was “−”. The “Behavior of gene caused by administration of chemical substance, Gene No. 2045” value ([1]; gene group (B), Unigene No. Rn.19329) was “+”, the “Behavior of gene caused by administration of chemical substance, Gene No. 2203” value ([1]; gene group (B), Unigene No. Rn.21240) was “−” and the “Behavior of gene caused by administration of chemical substance, Gene No. 533” value ([1]; gene group (C), Unigene No. Rn.106184) was “−”. The “Behavior of gene caused by administration of chemical substance, Gene No. 725” value ([1]; gene group (C), Unigene No. Rn.108075) was “+”, the “Behavior of gene caused by administration of chemical substance, Gene No. 1163” value ([1]; gene group (C), Unigene No. Rn.11766) was “−” and the “Behavior of gene caused by administration of chemical substance, Gene No. 4973” value ([1]; gene group (C), Unigene No. Rn.118529) was “+”. The “Behavior of gene caused by administration of chemical substance, Gene No. 4095” value ([1]; gene group (C), Unigene No. Rn.119024) was “+”, the “Behavior of gene caused by administration of chemical substance, Gene No. 1334” value [1, 4] was “−” and the “Behavior of gene caused by administration of chemical substance, Gene No. 6620” value [1, 4] was “−”. The “Behavior of gene caused by administration of chemical substance, Gene No. 6303” value ([1]; gene group (C), Unigene No. Rn.123063) was “−”, the “Behavior of gene caused by administration of chemical substance, Gene No. 5878” value ([1]; gene group (C), Unigene No. Rn.143213) was “−” and the “Behavior of gene caused by administration of chemical substance, Gene No. 1131” value ([1]; gene group (C), Unigene No. Rn.144946) was “−”. The “Behavior of gene caused by administration of chemical substance, Gene No. 1562” value ([1]; gene group (C), Unigene No. Rn.14744) was “−”, the “Behavior of gene caused by administration of chemical substance, Gene No. 1741” value ([1]; gene group (C), Unigene No. Rn.1647) was “+” and the “Behavior of gene caused by administration of chemical substance, Gene No. 893” value ([1]; gene group (C), Unigene No. Rn.164817) was “−”. The “Behavior of gene caused by administration of chemical substance, Gene No. 6026” value ([1]; gene group (C), Unigene No. Rn.167685) was “−”, the “Behavior of gene caused by administration of chemical substance, Gene No. 154” value ([1]; gene group (C), Unigene No. Rn.185941) was “−” and the “Behavior of gene caused by administration of chemical substance, Gene No. 1993” value ([1]; gene group (C), Unigene No. Rn.18728) was “−”. The “Behavior of gene caused by administration of chemical substance, Gene No. 813” value ([1]; gene group (C), Unigene No. Rn.201760) was “−”, the “Behavior of gene caused by administration of chemical substance, Gene No. 2494” value ([1]; gene group (C), Unigene No. Rn.23969) was “−” and the “Behavior of gene caused by administration of chemical substance, Gene No. 2546” value ([1]; gene group (C), Unigene No. Rn.24561) was “−”. For the same compound, the “Behavior of gene caused by administration of chemical substance, Gene No. 3776” value ([1]; gene group (C), Unigene No. Rn.43232) was “+”, the “Behavior of gene caused by administration of chemical substance, Gene No. 3929” value ([1]; gene group (C), Unigene No. Rn.4620) was “+” and the “Behavior of gene caused by administration of chemical substance, Gene No. 1119” value ([1]; gene group (C), Unigene No. Rn.9757) was “−”. The “Behavior of gene caused by administration of chemical substance, Gene No. 6742” value ([1]; gene group (C), Unigene No. Rn.9779) was “−”, the “Behavior of gene caused by administration of chemical substance, Gene No. 5634” value ([1]; gene group (C), Unigene No. Rn.9862) was “+” and the “Behavior of gene caused by administration of chemical substance, Gene No. 5726” value ([1]; gene group (D), Unigene No. Rn.9939) was “−”. For the same compound, the Liver carcinogenicity (liver) was “Cr−”, the Carcinogenicity (rodent) was “C−” and the “Mutagenicity by Ames test” value [2] was “M−”.
